Patent US7052908B2, “Androgen receptor coactivators” (University of Rochester, priority 1998, dated 2006)
Where a chain is given by its changes, count along the chain named. Blank lines part the entries; values can stand above or below the molecule they belong to.

How the values were obtained:
[1] = biological target: T1, wtAR (Homo sapiens, UniProt P10275); test: AR transactivation, transient transfection with MMTV-CAT reporter in DU145 cells; conditions: for AR transcriptional activity induction: 10 nM E2 or 1 μM HF
T1 sequence (P10275 1-920): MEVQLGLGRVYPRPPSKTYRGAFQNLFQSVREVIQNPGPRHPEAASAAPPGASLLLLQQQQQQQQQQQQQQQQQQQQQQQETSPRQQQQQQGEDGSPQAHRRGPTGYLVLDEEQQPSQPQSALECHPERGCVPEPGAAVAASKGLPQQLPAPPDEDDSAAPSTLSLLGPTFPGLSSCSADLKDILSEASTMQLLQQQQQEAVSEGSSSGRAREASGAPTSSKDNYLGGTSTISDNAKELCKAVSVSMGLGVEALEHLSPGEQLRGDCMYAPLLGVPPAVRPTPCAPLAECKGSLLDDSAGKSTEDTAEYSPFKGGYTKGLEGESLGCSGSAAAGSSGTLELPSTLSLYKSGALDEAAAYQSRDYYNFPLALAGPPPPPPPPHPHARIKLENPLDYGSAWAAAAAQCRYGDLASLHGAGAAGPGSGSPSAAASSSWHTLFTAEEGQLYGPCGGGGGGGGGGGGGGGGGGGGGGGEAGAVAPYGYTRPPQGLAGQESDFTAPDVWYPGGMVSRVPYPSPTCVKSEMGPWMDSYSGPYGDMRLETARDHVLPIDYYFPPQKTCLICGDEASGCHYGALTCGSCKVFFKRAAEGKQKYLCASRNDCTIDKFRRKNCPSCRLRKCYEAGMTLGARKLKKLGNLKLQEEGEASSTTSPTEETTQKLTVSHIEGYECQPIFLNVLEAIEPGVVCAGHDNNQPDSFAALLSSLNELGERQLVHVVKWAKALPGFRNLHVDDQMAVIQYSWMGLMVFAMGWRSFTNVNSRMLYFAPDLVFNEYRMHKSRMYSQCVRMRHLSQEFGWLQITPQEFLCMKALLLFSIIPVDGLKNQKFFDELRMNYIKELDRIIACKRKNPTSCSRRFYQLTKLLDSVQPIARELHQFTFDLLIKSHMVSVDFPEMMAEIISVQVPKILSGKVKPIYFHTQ

[2] = biological target: T2, mARe708k (Homo sapiens, UniProt P10275, E710K); test: AR transactivation, transient transfection CAT reporter assay, mutant AR; type: cell-based
T2 construct: expressed in transfected cells; host or cells: DU145
T2 sequence (P10275 1-920 E710K): T1 sequence (P10275 1-920) with E710K

[3] = biological target: T3, mARe708k (Homo sapiens, UniProt P10275); test: as above; type: cell-based; conditions: mARe708k cotransfected with Rb and/or ARA70; 10 nM E2 or 1 μM HF
T3 construct: expressed in transfected cells; host or cells: DU145
T3 sequence (P10275 1-920 E710K): T1 sequence (P10275 1-920) with E710K

[4] = test system: AR; test: Mammalian two-hybrid assay with CAT reporter in DU145 cells; type: cell-based, human; conditions: DU145; 10 nM DHT, or E2 or HF
Text: The mammalian two-hybrid system employed was essentially the protocol of Clontech (California), with the following modifications. […] The hinge and LBD of wtAR were then inserted into pGAL0. Similarly, the VP16 activation domain was fused to pCMX under the control of a CMV promoter, and designated pCMX-VP16 (provided by Dr. R. M. Evan).

[5] = test system: mARt877s; test: AR transactivation, transient transfection CAT reporter assay, mutant AR; type: cell-based, human
[6] = biological target: T4, AR (Homo sapiens, UniProt P10275); test: AR-activated transcription (CAT) in transfected H1299 cells; type: cell-based; design: expressed in transfected cells; host or cells: DU145 (A1), NCI H1299 (A7), PC3 (A8); conditions: H1299 cells with endogenous ARA54
T4 sequence (P10275 1-920): T1 sequence (P10275 1-920)
Text: Since the C-terminal region of ARA54 (a.a. 361–471 of SEQ ID NO:2) isolated from prostate cDNA library has shown to be sufficient to interact with AR in yeast two-hybrid assays, we further investigated whether it could squelch the effect of ARA54 on AR-activated transcription in H1299 cells, which contain endogenous ARA54. The C-terminal region of ARA54 inhibits AR-mediated transcription by up to 70%; coexpression of exogenous full-length ARA54 reverses this squelching effect in a dose-dependent manner.
Human small lung carcinoma H1299 cell line, which has no endogenous AR protein, were transfected with AR and ARA24/Ran. Because ARA24/Ran is one of the most abundant and ubiquitously expressed proteins in various cells, both sense and antisense ARA24/Ran mammalian expression plasmids were tested.

response of wtAR transactivation to ligand ([1]; E2 10^-9-10^-7 M or HF 10^-7-10^-5 M, in the presence or absence of ARA54): responded only marginally | AR transcriptional activity induction ([1]; wild type AR cotransfected with Rb and ARA70): 12 fold | AR transcriptional activity induction ([1]; wild type AR cotransfected with Rb or ARA70): 3–4 fold | response of wtAR transcriptional activity to ligand ([1]; without ARA55, only at higher concentrations (10^-7 M for E2, 10^-5 M for HF)): responded marginally | agonistic activity toward ARe708k [2]: no agonistic activity | AR transcriptional activity induction [3]: almost no induction
Molecule: CC(C)(O)C(=O)Nc1ccc([N+](=O)[O-])c(C(F)(F)F)c1 [HF, hydroxyflutamide, reference compound]
CAT activity with GAL0AR and VP16-ARA55 cotransfected [4]: not induced | response of Art877a transactivation to ligand ([5]; absence of ARA54, E2 10^-9-10^-7 M, HF 10^-7-10^-5 M): responded | response of LNCaP mAR to ligand compared to wtAR ([5]; compared to wtAR): responded much better

inhibition of AR-mediated transcription [6]: up to 70%
B1: C-terminal region of ARA54: a.a. 361–471 of ARA54, dominant negative inhibitor of AR-mediated transcription (protein)
chain: ANFNQSGNIADSSLSFTFTNSSNGPNLITTQTNSQALSQPIASSNVHDNFMNNEITASKIDDGNNSKPLSPGWTDQTAYNAFGITTGMFNTTTMDDVYNYLFDDEDTPPNPKKERNEYLQADEANKRLLDQRYGKRVIQKALEEMESKEWLEKNSKSCPCCGTPIEKLDGCNKMTCTGCMQYFCWICMGSLSRANPYKHFNDPGSPCFNRLFYAVDVDDDIWEDE
